# Biological target: Sigma non-opioid intracellular receptor 1 (Homo sapiens, UniProt Q99720)
# Sequence (Q99720 whole entry): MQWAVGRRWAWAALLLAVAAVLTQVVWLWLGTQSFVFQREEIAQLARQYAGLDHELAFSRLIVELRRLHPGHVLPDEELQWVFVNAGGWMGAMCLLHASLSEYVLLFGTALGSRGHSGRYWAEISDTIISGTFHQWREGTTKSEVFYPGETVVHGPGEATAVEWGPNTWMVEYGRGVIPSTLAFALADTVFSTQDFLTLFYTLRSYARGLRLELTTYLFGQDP
row,SMILES,Ki
1,O=c1[nH]c2nccn2c2c1ncn2C1CC(O)C(COP(=O)(O)OP(=O)(O)OP(=O)(O)O)O1 (centres undefined) [CAS_85976-54-1],0.042 µM
2,COc1ccc2c(c1)C13CCCCC1C(C2)N(C)CC3 (centres undefined) [Levomethorpan],0.521 µM
3,CCN(CC)CCOCCOC(=O)C1(c2ccccc2)CCCC1 [SMR000326757],0.0104 µM
4,"C#CCN(C)CCCOc1ccc(Cl)cc1Cl [US8633208, Clorgyline]",0.0087 µM
